Entries after “also recorded” stand apart in the source; their conditions may differ.
What was measured:
[1] = Gel formation of (RADA)4 solutions mixed with dextran sulfate solution; format: physicochemical; details: 1%-3% solutions mixed with dextran sulfate solution (0.5 and 1%)
[2] = tested on: stomach and esophagus of pigs (submucosal space); assay: Submucosal cushion/lift and hemostasis in endoscopic resection procedures in a porcine model; format: in vivo
Method: Solutions of (RADA)4 (RADARADARADARADA; SEQ ID NO: 1) in water were prepared. Concentrations of (RADA)4 (SEQ ID NO: 1) were between from 1% and 3% w/v. Methylene blue or indigo carmine dye (0.1 to 0.4%) was added to the solution in some experiments, and excluded from the solution in other experiments.
Pigs were randomly assigned to control or experimental groups. Animals were anesthetized. Multiple (>20) endoscopic procedures (EMD and ESD) were performed in different areas of the stomach of pigs, including the pylorus, and the esophagus, including the sphincter. In some experiments, polyps had previously been created by applying bands to the mucosa.
The (RADA)4 (SEQ ID NO: 1) solutions (experimental animals) or saline or ELEVIEW™ (control animals) were administered into the submucosal space through 2.2 mm channel diameter, 230 cm long catheters that have either 25 gauge needle tips or spray tips on the end to form a cushion. In some experiments, catheters having different diameters were used as well as multiple internal channels. The products were delivered from a prefilled syringe or mixed from a kit prior to delivery.

## RADARADARADARADA [(RADA)4]
[1]
  gel formation: formed space occupying gels
[2]; pig gastric antrum, delivered through 25G endoscopic injection needle
  duration of submucosal lift: > 2 h
[2]; pig, applied following application of clips
  use with clips as sealant at post-polypectomy site: useful in conjunction with clips as a potential sealant
[2]; pig, applied topically or injected into mucosa near the bleeding site, with or without visualizing agent
  hemostasis in actively bleeding lesions: provide hemostasis in actively bleeding lesions; also recorded: stopped bleeding promptly, typically within seconds
[2]; pig, compared with ELEVIEW™ and saline
  durability of cushions versus controls: lasting longer than ELEVIEW™ and saline controls
[2]; pig, submucosal injection before dissection (prophylactic hemostasis)
  bleeding after polyp removal / tissue resection: no visible bleeding was observed following polyp removal; also recorded: minimal to no bleeding in most lesions was observed
[2]; pig, submucosal tunnel through cushion
  time over which the tunnel opening could easily be found after removing and reinserting equipment: typically more than an hour
